The data set can be described thus: Chemical stability of the API alone and in presence of excipients. It is filed as physicochemical. On the procedure:
Excipient selection/composition development was conducted in order to stabilize (trans)-N1-((1R,2S)-2-phenylcyclopropyl)cyclohexane-1,4-diamine in the final drug product to prevent its chemical degradation. (trans)-N1-((1R,2S)-2-phenylcyclopropyl)cyclohexane-1,4-diamine is very unstable in presence of excipients which are used to form a tablet composition. This is reflected by a decrease of the (trans)-N1-((1R,2S)-2-phenylcyclopropyl)cyclohexane-1,4-diamine content (assay) over time upon storage. The effect is more pronounced at elevated storage temperature.

Entries after “also recorded” stand apart in the source; their conditions may differ.

For `N[C@H]1CC[C@H](N[C@@H]2C[C@H]2c2ccccc2)CC1` [(trans)-N1-((1R,2S)-2-phenylcyclopropyl)cyclohexane-1,4-diamine], the “chemical stability as an API” value (API alone) is on record as “chemically very stable”. For the same compound, the “stability in presence of excipients” value (in presence of excipients which are used to form a tablet composition, more pronounced at elevated storage temperature) was “very unstable; also recorded: decompose in presence of many excipients”.

The record behind these values is US20210228490A1, “STABLE PHARMACEUTICAL FORMULATION” (ORYZON GENOMICS, S.A., priority 2018, published 2021).
